Where a name gives a salt, the structure may show the parent alone.
Key:
ROCKII (1-543) [1] = molecular target: T1, ROCKII (1-543) (Homo sapiens, UniProt O75116); assay: Luciferin-Luciferase Assay (PKLight ATP detection); format: biochemical; design: ROCKII (1-543) (62,408 Da) was diluted in assay buffer; conditions: 7.5 nM ROCKII (1-543), 750 nM ATP
Description: 1. Luciferin-Luciferase Assay
The activity of ROCKII (1-543) kinase was measured utilizing Cambrex PKLight ATP Detection Reagent, a homogeneous assay technology using luciferin-luciferase to quantify residual ATP. The assay was performed in 384-well low-volume, white, non-binding surface microtiter plates (Corning). The assay buffer was 25 mM HEPES, pH 7.5, 10 mM MgCl2, 50 mM KCl, 0.2% BSA, 0.01% CHAPS, 100 μM Na3VO4 and 0.5 mM DTT. Test compounds, dissolved in neat DMSO at 500 μg/mL, were serially diluted for dose response for a final starting concentration of 3 μg/mL in 1% DMSO of assay buffer. ROCKII (1-543) (62,408 Da) was diluted in assay buffer to a final concentration of 7.5 nM in a total volume of 15 μL. Positive controls were reaction mixtures containing no test compound; negative controls (blanks) were reaction mixtures containing no kinase. After 15 minutes of pre-incubation of the test compounds with the kinase, a mixture of ATP and peptide substrate (AKRRRLSSLRA) in assay buffer was added to each well for a final concentration of 750 nM ATP and 500 nM peptide, respectively. After 90 minutes of incubation of the kinase reaction at 28° C. temperature, 10 μL of PKLight ATP Detection Reagent (warmed to room temperature previously) was added to each well. The assay plate was incubated at room temperature for additional 15 minutes and then read on an Analyst in luminescence mode. Dose-response experiments for each of the test compounds were conducted in quadruplet. IC50 values of test compounds represent 50% response of the positive control from the dose-response curve.
Target sequence in this assay (O75116 1-543): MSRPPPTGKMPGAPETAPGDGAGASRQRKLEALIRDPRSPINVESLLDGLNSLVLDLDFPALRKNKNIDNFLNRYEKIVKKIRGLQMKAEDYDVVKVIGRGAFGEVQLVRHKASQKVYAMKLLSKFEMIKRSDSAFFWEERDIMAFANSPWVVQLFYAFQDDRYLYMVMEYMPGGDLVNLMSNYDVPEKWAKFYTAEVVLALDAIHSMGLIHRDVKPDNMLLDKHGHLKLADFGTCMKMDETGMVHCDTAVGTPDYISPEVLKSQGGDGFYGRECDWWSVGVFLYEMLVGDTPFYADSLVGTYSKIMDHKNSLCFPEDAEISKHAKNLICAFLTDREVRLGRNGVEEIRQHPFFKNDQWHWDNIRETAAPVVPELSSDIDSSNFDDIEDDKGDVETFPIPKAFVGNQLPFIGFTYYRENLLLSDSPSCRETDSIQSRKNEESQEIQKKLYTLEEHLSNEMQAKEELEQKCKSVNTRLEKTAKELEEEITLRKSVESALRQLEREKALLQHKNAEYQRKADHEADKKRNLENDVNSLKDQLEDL

ROCKII (1-543) [2] = molecular target: T1, ROCKII (1-543); assay: IMAP Assay (fluorescence polarization, FAM S6 peptide); format: biochemical; design: 3 nM ROCKII (1-543) diluted in kinase reaction buffer; conditions: IMAP FP, 1 nM ROCKII (1-543), 100 μM ATP; read-out: Assay 2 IC50
Description: This assay is performed using FAM S6 substrate peptide (Catalogue #R7184) and IMAP FP Screening Express Kit detection reagents from Molecular Devices (Sunnyvale, Calif.) in IMAP kinase reaction buffer (Tris-HCl, pH 7.2, 10 mM MgCl2, 0.05% NaN3, 0.1% phosphate-free BSA) containing 1 mM DTT. Test compounds dissolved in neat DMSO at 0.3 mg/mL are serially diluted 1 to 3 for concentration response in 100% DMSO. The DMSO serial dilutions are further diluted 33.33-fold in kinase reaction buffer, and 10 μL of this buffer dilution is transferred to Corning black 96-well half area NBS plates for a final top concentration of 3 μg/mL in 1% DMSO. 10 μL aliquot of 3 nM ROCKII (1-543) diluted in kinase reaction buffer is added to each assay well for a final concentration of 1 nM kinase. 10 μL of a mixture of 600 nM FAM S6 peptide and 300 μM ATP diluted in kinase reaction buffer is added to each well for a final concentration of 200 nM peptide and 100 μM ATP. The kinase reaction mixture is incubated for 60 minutes at room temperature. Positive controls are reaction mixtures containing no test compound and negative controls (blanks) are reaction mixtures containing no kinase. The kinase reaction is stopped by addition of 60 μL IMAP progressive binding reagent (Catalog #R7284) diluted 400-fold in 1× Binding buffer A. After 30 min of incubation at room temperature, the plates are read for fluorescence polarization on Analyst Plate Reader using Ex 485 nm, Em 530 nm, and FL 505 dichroic mirror. The mP signals are converted to percent of control (POC) values using the formula: POC=100*(Signal−BCTRL)÷(PCTRL−BCTRL)
Where Signal is the test well signal, BCTRL is the average of background (negative control) well signals on the plate and PCTRL is the average of positive control well signals on the plate. For the concentration-responsive compounds, POC as a function of test compound concentration is fitted to a 4-parameter logistic equation of the form: Y=A+(B−A)/[1+(x/C)D]
Where A, B, C, and D are fitted parameters (parameter B is fixed at zero POC), and x and y are the independent and dependent variables, respectively. The IC50 is determined as the inflection point parameter, C.
Target sequence in this assay (O75116 1-543, species assumed): as the sequence (O75116 1-543) above

SMILES	IC50 (ROCKII (1-543) [1])	IC50 (ROCKII (1-543) [2])
CN1CCc2nc(NC(=O)c3cccc(CN4CCN(c5ccc(C#N)cc5)C4=O)c3)sc2C1 [Compound 1, 3-[3-(4-Cyano-phenyl)-2-oxo-imidazolidin-1-ylmethyl]-N-(5-methyl-4,5,6,7-tetrahydro-thiazolo[5,4-c]pyridin-2-yl)-benzamide]	4.8 nM	54 nM
CN1CCc2nc(NC(=O)c3cccc(Cn4cc(-c5ccc(C#N)cc5)nn4)c3)sc2C1 [Compound 2, 3-[4-(4-Cyano-phenyl)-[1,2,3]triazol-1-ylmethyl]-N-(5-methyl-4,5,6,7-tetrahydro-thiazolo[5,4-c]pyridin-2-yl)-benzamide]	2.8 nM	11 nM
CN(C)[C@H]1CCc2nc(NC(=O)c3cccc(CN4CCN(c5ccc(C#N)cc5)C4=O)c3)sc2C1 [Compound 3, 3-[3-(4-Cyano-phenyl)-2-oxo-imidazolidin-1-ylmethyl]-N—((S)-6-dimethylamino-4,5,6,7-tetrahydro-benzothiazol-2-yl)-benzamide]	2 nM	0.67 nM
N#Cc1ccc(N2CCN(Cc3cccc(C(=O)Nc4nc5c(s4)C[C@@H](N4CCOCC4)CC5)c3)C2=O)cc1 [Compound 6, 3-[3-(4-Cyano-phenyl)-2-oxo-imidazolidin-1-ylmethyl]-N—((S)-6-morpholin-4-yl-4,5,6,7-tetrahydro-benzothiazol-2-yl)-benzamide]	2 nM	1.3 nM
N#Cc1ccc(-c2cn(Cc3cccc(C(=O)Nc4nc5c(s4)C[C@@H](N4CCOCC4)CC5)c3)cn2)cc1 [Compound 10, 3-[4-(4-Cyano-phenyl)-imidazol-1-ylmethyl]-N—((S)-6-morpholin-4-yl-4,5,6,7-tetrahydro-benzothiazol-2-yl)-benzamide]	2.7 nM	0.87 nM
N#Cc1ccc(-c2cnn(Cc3cccc(C(=O)Nc4nc5c(s4)CC(N4CCC(F)(F)CC4)CC5)c3)c2)cc1 (stereo not shown) [Compound 15, 3-[4-(4-Cyano-phenyl)-pyrazol-1-ylmethyl]-N-[6-(4,4-difluoro-piperidin-1-yl)-4,5,6,7-tetrahydro-benzothiazol-2-yl]-benzamide trifluoroacetate]	4.6 nM	2.4 nM
N#Cc1ccc(-c2cnn(Cc3cccc(C(=O)Nc4nc5c(s4)CC(N4CCC(F)CC4)CC5)c3)c2)cc1 (stereo not shown) [Compound 18, 3-[4-(4-Cyano-phenyl)-pyrazol-1-ylmethyl]-N-[6-(4-fluoro-piperidin-1-yl)-4,5,6,7-tetrahydro-benzothiazol-2-yl]-benzamide trifluoroacetate]	2.2 nM	0.66 nM
N#Cc1ccc(-c2cn(Cc3cccc(C(=O)Nc4nc5c(s4)C[C@@H](NCCC(F)(F)F)CC5)c3)nn2)cc1 [Compound 22, 3-[4-(4-Cyano-phenyl)-[1,2,3]triazol-1-ylmethyl]-N—[(S)-6-(3,3,3-trifluoro-propylamino)-4,5,6,7-tetrahydro-benzothiazol-2-yl]-benzamide]	2.2 nM	1.1 nM
COCCN(C)C1CCc2nc(NC(=O)c3cccc(Cn4cc(-c5ccc(C#N)cc5)nn4)c3)sc2C1 (stereo not shown) [Compound 24, 3-[4-(4-Cyano-phenyl)-[1,2,3]triazol-1-ylmethyl]-N-{6-[(2-methoxy-ethyl)-methyl-amino]-4,5,6,7-tetrahydro-benzothiazol-2-yl}-benzamide]	3.1 nM	2.6 nM
C[C@@H]1CN(C2CCc3nc(NC(=O)c4cccc(Cn5cc(-c6ccc(C#N)cc6)cn5)c4)sc3C2)C[C@H](C)O1 (stereo partly drawn) [Compound 26, 3-[4-(4-Cyano-phenyl)-pyrazol-1-ylmethyl]-N-[6-((2R,6S)-2,6-dimethyl-morpholin-4-yl)-4,5,6,7-tetrahydro-benzothiazol-2-yl]-benzamide]	4.3 nM	3.9 nM
C[C@@H]1CN(C2CCc3nc(NC(=O)c4cccc(Cn5cc(-c6ccc(C#N)cc6)nn5)c4)sc3C2)C[C@H](C)O1 (stereo partly drawn) [Compound 27, 3-[4-(4-Cyano-phenyl)-[1,2,3]triazol-1-ylmethyl]-N-[6-((2S,6R)-2,6-dimethyl-morpholin-4-yl)-4,5,6,7-tetrahydro-benzothiazol-2-yl]-benzamide]	3.1 nM	3.9 nM
N#Cc1ccc(-c2cn(Cc3cccc(C(=O)Nc4nc5c(s4)C[C@H](N)CC5)c3)nn2)cc1 [Compound 58, N—((R)-6-Amino-4,5,6,7-tetrahydro-benzothiazol-2-yl)-3-[4-(4-cyano-phenyl)-[1,2,3]triazol-1-ylmethyl]-benzamide]	2.2 nM	–
CN(CC(F)F)C1CCc2nc(NC(=O)c3cccc(Cn4cc(-c5ccc(C#N)cc5)cn4)c3)sc2C1 (stereo not shown) [Compound 59, 3-[4-(4-Cyano-phenyl)-pyrazol-1-ylmethyl]-N-{6-[(2,2-difluoro-ethyl)-methyl-amino]-4,5,6,7-tetrahydro-benzothiazol-2-yl}-benzamide]	7.3 nM	–
COCCN(C)[C@@H]1CCc2nc(NC(=O)c3cccc(Cn4cc(-c5ccc(C#N)cc5)cn4)c3)sc2C1 [Compound 64, 3-[4-(4-Cyano-phenyl)-pyrazol-1-ylmethyl]-N-{(R)-6-[(2-methoxy-ethyl)-methyl-amino]-4,5,6,7-tetrahydro-benzothiazol-2-yl}-benzamide]	2 nM	–
COCCN[C@@H]1CCc2nc(NC(=O)c3cccc(Cn4cc(-c5ccc(C#N)cc5)nn4)c3)sc2C1 [Compound 65, 3-[4-(4-Cyano-phenyl)-[1,2,3]triazol-1-ylmethyl]-N—[(R)-6-(2-methoxy-ethylamino)-4,5,6,7-tetrahydro-benzothiazol-2-yl]-benzamide]	1.9 nM	–
COCCN(C)[C@@H]1CCc2nc(NC(=O)c3cccc(Cn4cc(-c5ccc(C#N)cc5)nn4)c3)sc2C1 [Compound 66, 3-[4-(4-Cyano-phenyl)-[1,2,3]triazol-1-ylmethyl]-N-{(R)-6-[(2-methoxy-ethyl)-methyl-amino]-4,5,6,7-tetrahydro-benzothiazol-2-yl}-benzamide]	6.5 nM	–
CN(C1CC1)C1CCc2nc(NC(=O)c3cccc(Cn4cc(-c5ccc(C#N)cc5)cn4)c3)sc2C1 (stereo not shown) [Compound 67, 3-[4-(4-Cyano-phenyl)-pyrazol-1-ylmethyl]-N-[6-(cyclopropyl-methyl-amino)-4,5,6,7-tetrahydro-benzothiazol-2-yl]-benzamide]	4.5 nM	–
CN(C1CC1)C1CCc2nc(NC(=O)c3cccc(Cn4cc(-c5ccc(C#N)cc5)nn4)c3)sc2C1 (stereo not shown) [Compound 68, 3-[4-(4-Cyano-phenyl)-[1,2,3]triazol-1-ylmethyl]-N-[6-(cyclopropyl-methyl-amino)-4,5,6,7-tetrahydro-benzothiazol-2-yl]-benzamide]	7.3 nM	–
N#Cc1ccc(-c2cnn(Cc3cccc(C(=O)Nc4nc5c(s4)CC(N4CCCC(F)(F)C4)CC5)c3)c2)cc1 (stereo not shown) [Compound 71, 3-[4-(4-Cyano-phenyl)-pyrazol-1-ylmethyl]-N-[6-(3,3-difluoro-piperidin-1-yl)-4,5,6,7-tetrahydro-benzothiazol-2-yl]-benzamide]	7.2 nM	–
N#Cc1ccc(-c2cnn(Cc3cccc(C(=O)Nc4nc5c(s4)CC(N4CCC(F)(F)C4)CC5)c3)c2)cc1 (stereo not shown) [Compound 73, 3-[4-(4-Cyano-phenyl)-pyrazol-1-ylmethyl]-N-[6-(3,3-difluoro-pyrrolidin-1-yl)-4,5,6,7-tetrahydro-benzothiazol-2-yl]-benzamide]	8.5 nM	–
